Assay: xn = mol fraction of the nth substance listed
Conditions: Liquid

COC(=O)OC [dimethyl carbonate] + C1CCCCC1
mass density [kg/m3]
Conditions	x1 = 0.1	x1 = 0.2	x1 = 0.3	x1 = 0.4	x1 = 0.5	x1 = 0.6	x1 = 0.7	x1 = 0.8	x1 = 0.9	x1 = 1
293.15 K, 100 kPa	797.9	818.3	842.3	866	893.7	923.6	957.5	991	1030.4	1069.8
293.15 K, 5000 kPa	802.2	822.7	846.9	870.7	898.5	928.4	962.3	995.8	1035.1	1074.4
293.15 K, 10000 kPa	806.2	827	851.2	875.3	903.1	933	966.9	1000.3	1039.5	1078.6
293.15 K, 20000 kPa	813.9	835	859.6	883.9	911.8	941.8	975.7	1009	1048	1086.9
293.15 K, 30000 kPa	821.3	842.7	867.5	892	920	950	983.8	1017.1	1055.8	1094.5
293.15 K, 40000 kPa	828.5	850.2	875.2	899.8	928	958	991.8	1025	1063.5	1101.9
298.15 K, 100 kPa	792.3	812.5	836.3	860	887.4	917	950.8	984.2	1023.2	1063.2
298.15 K, 5000 kPa	796.9	817.3	841.3	865.1	892.6	922.2	956	989.4	1028.2	1068
298.15 K, 10000 kPa	801.2	821.8	846	870	897.5	927.1	960.8	994.2	1032.8	1072.4
298.15 K, 20000 kPa	809.2	830.2	854.6	878.8	906.5	936.1	969.8	1003.1	1041.5	1080.8
298.15 K, 30000 kPa	816.5	837.8	862.5	887	914.8	944.5	978.2	1011.4	1049.7	1088.7
298.15 K, 40000 kPa	823.2	844.8	869.8	894.5	922.5	952.3	986.1	1019.3	1057.4	1096.2
303.15 K, 100 kPa	786.9	806.9	830.4	854.1	881.2	910.1	944.1	977.4	1015.8	1056.5
303.15 K, 5000 kPa	791.4	811.7	835.4	859.2	886.4	915.4	949.3	982.6	1020.9	1061.3
303.15 K, 10000 kPa	796	816.5	840.4	864.4	891.6	920.6	954.5	987.7	1025.8	1065
303.15 K, 20000 kPa	804.5	825.3	849.5	873.8	901.2	930.3	964.1	997.1	1035	1074.7
303.15 K, 30000 kPa	812.1	833.4	857.9	882.3	909.9	939.1	972.8	1005.8	1043.6	1082.9
303.15 K, 40000 kPa	819	840.7	865.4	890.1	917.8	947.2	980.9	1013.8	1051.4	1090.4
308.15 K, 100 kPa	781.2	801.4	824.4	847.9	874.8	903.4	936.9	969.7	1008.6	1049.8
308.15 K, 5000 kPa	786.1	806.5	829.7	853.4	880.3	908.9	942.3	975.1	1013.7	1054.6
308.15 K, 10000 kPa	790.8	811.4	834.8	858.6	885.6	914.2	947.7	980.4	1018.8	1059.4
308.15 K, 20000 kPa	799.5	820.5	844.2	868.3	895.5	924.2	957.6	990.2	1028.4	1068.5
308.15 K, 30000 kPa	807.4	828.7	852.8	877.1	904.4	933.3	966.7	999.3	1037.3	1077
308.15 K, 40000 kPa	814.6	836.3	860.6	885.2	912.7	941.7	975	1007.6	1045.4	1084.8
313.15 K, 100 kPa	775.6	795.8	818.5	841.9	868.6	896.7	929.7	962.3	1001.1	1043
313.15 K, 5000 kPa	780.8	801.3	824.1	847.7	874.4	902.6	935.5	968	1006.6	1048.1
313.15 K, 10000 kPa	785.6	806.2	829.3	853	879.8	908.1	941	973.5	1011.9	1053
313.15 K, 20000 kPa	794.8	815.8	839.2	863.2	890.2	918.5	951.4	983.8	1021.8	1062.3
313.15 K, 30000 kPa	802.9	824.2	848	872.2	899.4	927.9	960.8	993.1	1030.9	1071
313.15 K, 40000 kPa	810.5	832.1	856.2	880.7	908	936.7	969.5	1001.9	1039.4	1079

Source: the NIST ThermoML archive (doi:10.1021/je100353j)
